Entries after “also recorded” stand apart in the source; their conditions may differ.

In one assay the test system is soil consortia cultures. As to the kind of experiment: Phosphate solubilization in soil-inoculated NBRIP cultures. It is filed as cell-based. The method, then:
To select for the native soil microbial consortia that solubilize phosphorus, a small quantity of soil was inoculated into flask cultures of NBRIP media. Flasks were treated with increasing amounts of AB09 and grown at room temperature on orbital shakers for 4 days. The cleared supernatant of the soil cultures were quantified for available phosphorus using the malachite green method.
FIG. 3. AB09 induced phosphate solubilization activity occurs in a dose-dependent manner in soil consortia cultures. 50 mL of NBRIP growth medium was added to 250 mL baffled flasks, containing 500 mg of 2 mm particle-sized soil, to select for phosphate solubilizing microbes. Flasks with sterilized foam caps were placed on orbital shakers at 110 RPM for 4 days at room temperature. Orthophosphate was measured using the malachite-green phosphate method.
50 mL of NBRIP growth medium was added to 250 mL baffled flasks, containing 500 mg of 2 mm particle-sized soil, to select for phosphate solubilizing microbes. AB09 stock solution (10 mg/mL) was prepared in distilled water. Untreated controls received no AB09. […]
Flasks with sterilized foam caps were placed on orbital shakers at 110 RPM for 4 days at room temperature. […] Supernatant from samples were removed and placed into new microcentrifuge tubes for orthophosphate quantification using the malachite green method.

The next assay relates to Azotobacter vinlandii. As to the kind of experiment: Acetylene reduction method to measure nitrogen fixation in Azotobacter vinlandii. The assay is classed as cell-based. The settings on record: increasing amounts of AB09, Burks-N media, 48 h growth, dose response. The source says: Azotobacter vinlandii is a model free-living nitrogen fixing bacteria, or diazotroph, commonly found in soils. The acetylene reduction technique was used to determine if the nitrogen fixation activity of A. vinlandii is altered due to AB09 treatment. The acetylene reduction technique relies on the non-specific activity of the nitrogenase enzyme (which is responsible for reducing atmospheric dinitrogen gas N2 to ammonia NH3), to reduce acetylene to ethylene. Acetylene and ethylene gases were detected and quantified by GC/MS.
Liquid flask cultures of A. vinlandii were grown in nitrogen-free growth media (Burks-N) and supplemented with varying amounts of AB09 (0 ug/mL culture received a mock treatment of water). Samples were analyzed for acetylene reduction to ethylene after 48 h of growth (cell concentration was normalized prior to the addition of acetylene).
Azotobacter vinlandii cultures starting from OD600=0.02 were grown in liquid N-free bacterial growth media (Burks-N) with varying amounts of AB09 shaking at 28 C. Three flasks of bacteria were grown for each concentration of AB09. After 48 h, cultures were normalized OD600=0.1 and 5 mL of the normalized culture was transferred to gas-tight autosampler vials. […] After 3 hours of incubation (with shaking at 28 C), the gas headspace of the vials was measured via GC/MS for acetylene and ethylene. […]

Another assay relates to wheat. As to the kind of experiment: Wheat growth on nitrogen free media with nitrogen fixing bacterium. It is filed as in vivo. The settings on record: AB09 in combination with a nitrogen fixing bacterium, vs control lacking treatment. Here is the method:
The ability of the AB09 molecule to control useful soil bacteria metabolism has implications for building integrated technology systems and groundbreaking products. In the lab, AB09 was administered in combination with a nitrogen fixing bacterium to nitrogen free media.

`CC1=CC(Oc2c(C)occc2=O)OC1=O` (stereo not shown) [AB09, maltol lactone]: in the assay with soil consortia cultures (highest treatment 25 ug/mL, 4 days, room temperature), the “increase of phosphate concentration over the untreated control” value is 2-3 fold. For the same compound, the “ability of soil consortia cultures to solubilize phosphorus” value in the assay with soil consortia cultures (increasing amounts of AB09, 4 days) is recorded as “enhanced by AB09 in a dose-responsive manner”. In addition, in the assay with Azotobacter vinlandii, the “ethylene gas from acetylene reduction (nitrogenase activity)” value was “increased amounts of ethylene gas”. For the same compound, the “wheat growth on nitrogen free media” value with wheat is reported as “substantially greater; also recorded: more robust growth”.

The record behind these values is patent publication US12239132B2, “Compounds and methods for increasing soil nutrient availability” (SOUND AGRICULTURE COMPANY, priority 2018, dated 2025).
